How the values were obtained:
Assay type in all cases: cell-based
Settings in all cases: 72 h
[1] = tested on: LNCaP cells; assay: MTT assay (cytotoxicity), LNCaP cells
Experimental: (§1) MTT assays: LNCaP, 22Rv1, Du145, H1975, A549, MB231 and MCF-7 cells are maintained in RPMI 1640 supplemented with 10% FBS. Cells were seeded at a density of 6-7×10^3 cells per well in 96-well plates. After overnight incubation, cells in fresh RPMI 1640 supplemented with 10% FBS were exposed to DMSO vehicle control or test compounds at designated concentrations for 72 h. Viable cells were evaluated by MTT assays. Experiments were performed in triplicate and repeated at least twice.

[2] = tested on: DU145 cells; assay: MTT assay (cytotoxicity), DU145 cells
Experimental: as §1

[3] = tested on: 22Rv1 cells; assay: MTT assay (cytotoxicity), 22Rv1 cells
Experimental: as §1

Structure (SMILES)	IC50 ([1]; Table 2.2)	IC50 ([2]; Table 2.2)	IC50 ([3]; Table 2.2)	further results
COc1cccc(NC(=O)N/C=C/c2cccc(C(F)(F)F)c2)c1 [Compound 417]	14.6 µM	12.2 µM	10.8 µM	
N#Cc1ccc(NC(=O)N/C=C/c2cc(C(F)(F)F)cc(C(F)(F)F)c2)nc1 [Compound 483]				IC50 ([2]; Table 2.1): 2 µM; IC50 ([3]; Table 2.1): 2.3 µM
Cc1ccccc1NC(=O)N/C=C/c1cccc(C(F)(F)F)c1 [Compound 445]	4.1 µM	4.8 µM	5.2 µM	
Nc1ccc(NC(=O)N/C=C/c2ccc(C(F)(F)F)cc2)cc1 [Compound 462]	3.5 µM	3.2 µM	6.3 µM	
N#Cc1ccc(NC(=O)Nc2ccc(C(F)(F)F)cc2)cc1C(F)(F)F [Compound 509]				IC50 ([1]; LNCaP cells, Table 4.2): 0.7 µM; IC50 ([2]; DU145 cells, Table 4.2): 5.4 µM; IC50 ([3]; 22Rv1 cells, Table 4.2): 1.6 µM
N#Cc1ccc(NC(=O)Nc2cc(C(F)(F)F)cc(C(F)(F)F)c2)cc1Cl [Compound 500]				IC50 ([1]; LNCaP cells, Table 4.2): 0.2 µM; IC50 ([2]; DU145 cells, Table 4.2): 1.3 µM; IC50 ([3]; 22Rv1 cells, Table 4.2): 0.4 µM
O=C(N/C=C/c1cccc(F)c1)Nc1ccc([N+](=O)[O-])c(C(F)(F)F)c1 [Compound 412]	18.8 µM		> 20 µM	
O=C(N/C=C/c1cccc(F)c1)Nc1cccc(C(F)(F)F)c1 [Compound 414]	3.8 µM	7.8 µM	8.2 µM	
N#Cc1ccc(NC(=O)N/C=C/c2ccc(C(F)(F)F)cc2)cc1C(F)(F)F [Compound 421]	1.4 µM	3.4 µM	7.2 µM	
N#Cc1ccc(NC(=O)N/C=C/c2cc(C(F)(F)F)ccc2C(F)(F)F)cc1C(F)(F)F [Compound 464]	0.4 µM	0.4 µM	0.7 µM	
N#Cc1ccc(NC(=O)N/C=C/c2cc(C(F)(F)F)cc(C(F)(F)F)c2)cc1 [Compound 469]	1 µM	1.7 µM	1.9 µM	
COc1cccc(NC(=O)N/C=C/c2ccccc2C(F)(F)F)c1 [Compound 429]	9.1 µM	14.9 µM	16.4 µM	
O=C(N/C=C/c1ccccc1)Nc1cccc(C(F)(F)F)c1 [Compound 415]	6.6 µM	14 µM	11 µM	
N#Cc1ccc(NC(=O)N/C=C/c2cccc(C(F)(F)F)c2)cc1 [Compound 416]	1.6 µM	2.6 µM	3.6 µM	
O=C(N/C=C/c1cc(C(F)(F)F)cc(C(F)(F)F)c1)Nc1cccnc1 [Compound 503]				IC50 ([1]; Table 2.1): 7.5 µM; IC50 ([2]; Table 2.1): 9.5 µM; IC50 ([3]; Table 2.1): 11.3 µM
COc1cc([N+](=O)[O-])ccc1NC(=O)N/C=C/c1cccc(C(F)(F)F)c1 [Compound 441]	4.8 µM	6.7 µM	8.3 µM	
N#Cc1ccc(NC(=O)Nc2ccc(C(F)(F)F)cc2)cc1Cl [Compound 502]				IC50 ([1]; LNCaP cells, Table 4.2): 1.2 µM; IC50 ([2]; DU145 cells, Table 4.2): 4.1 µM; IC50 ([3]; 22Rv1 cells, Table 4.2): 2.2 µM
N#Cc1ccc(NC(=O)N/C=C/c2cccc(F)c2)cc1C(F)(F)F [Compound 433]	1.9 µM	3.9 µM	3.2 µM	
O=C(N/C=C/c1cc(C(F)(F)F)cc(C(F)(F)F)c1)Nc1cncc(F)c1 [Compound 535]				IC50 ([1]; Table 2.1): 2.6 µM; IC50 ([2]; Table 2.1): 3 µM; IC50 ([3]; Table 2.1): 3.1 µM
O=C(N/C=C/c1cccc(C(F)(F)F)c1)Nc1ccc([N+](=O)[O-])cc1 [Compound 449]	2.1 µM	3.9 µM	5.3 µM	
N#Cc1ccc(NC(=O)N/C=C/c2cc(C(F)(F)F)cc(C(F)(F)F)c2)cc1C(F)(F)F [Compound 463]	1.2 µM	1.2 µM	1 µM	
O=C(N/C=C/c1ccc(C(F)(F)F)cc1)Nc1ccc([N+](=O)[O-])c(C(F)(F)F)c1 [Compound 407]	9.6 µM	15.3 µM		
O=C(N/C=C/c1cccc(OC(F)(F)F)c1)Nc1ccc([N+](=O)[O-])c(C(F)(F)F)c1 [Compound 437]	1.6 µM	3 µM	2.7 µM	
COc1cccc(/C=C/NC(=O)Nc2cccc(OC)c2)c1 [Compound 430]	> 20 µM		> 20 µM	
O=C(N/C=C/c1cccc([N+](=O)[O-])c1)Nc1ccc([N+](=O)[O-])c(C(F)(F)F)c1 [Compound 456]	2 µM	5.2 µM	4.1 µM	
O=C(N/C=C/c1cc(C(F)(F)F)cc(C(F)(F)F)c1)Nc1nccc(C(F)(F)F)n1 [Compound 538]				IC50 ([1]; Table 2.1): < 1 µM; IC50 ([2]; Table 2.1): 1.2 µM

Source: US20170273922A1, “UREA AND BIS-UREA BASED COMPOUNDS AND ANALOGUES THEREOF USEFUL IN THE TREATMENT OF ANDROGEN RECEPTOR MEDIATED DISEASES OR DISORDERS” (THE ROYAL INSTITUTION FOR THE ADVACEMENT OF LEARNING/MCGILL …, priority 2014, published 2017)
